System: 292921-168-R tumor spheroid viability
Test: Anticancer human tumor 292921-168-R patient-derived pancreatic carcinoma cell line growth inhibition
Settings: spheroids with HUVEC and MSC; for IC50: curve of first compound; for viability, T/C: stronger effect = lower value
Excerpt: Multicellular complex tumor spheroid response to DNA repair inhibitors in combination with DNA-damaging drugs
This study explores the anticancer activities of DNA-damaging drugs and inhibitors of DNA damage repair, both as single agents and in combinations. Complex tumor spheroids comprised of malignant cells, endothelial cells and mesenchymal stem cells served as an in vitro model for human solid tumors. This model system incorporates physiologically relevant features and patient-derived or established malignant cell lines with clinically relevant genetic alterations from many tumor types. Twenty-six patient-derived or established malignant cell lines were evaluated representing sarcoma, melanoma, small cell lung cancer (SCLC), non-small cell lung cancer (NSCLC), as well as bladder, ovarian and pancreatic cancers. The concentration ranges selected for each drug and investigational agent were based upon clinically achievable concentrations if the clinical Cmax of the agent was known.
Compounds. The drugs and compounds olaparib (NSC753686), talazoparib (NSC767125), berzosertib (NSC777718), elimusertib (NSC800525), nedisertib (NSC802822), VX-984 (NSC792969), AZD-1390 (NSC803789), temozolomide (NSC362856), topotecan (NSC609699), trabectedin (NSC813783), staurosporine (NSC755774), and gemcitabine (NSC613327) were obtained from the National Cancer Institute (NCI) Developmental Therapeutics Program Chemical Repository. The FDA-approved anticancer drug set is available from the Developmental Therapeutics Program at https://dtp.cancer.gov/organization/dscb/obtaining/available_plates.htm. […] The stock solutions were prepared in dimethyl sulfoxide (DMSO, Sigma-Aldrich, St. Louis, MO, cat. D2650) at 400-fold the tested concentration and stored at -70 degrees C. Prior to their use, the stock solutions were diluted in fresh medium and the final DMSO concentration in the assay was 0.25% (v/v). All drugs and investigational agents were tested over a range starting from a high concentration at or near the clinical Cmax and decreasing in half-log increments. If the clinical Cmax for an agent had not been determined, the highest concentration tested was 10 microM.
Cell Lines. The patient-derived cancer cell (PDC) lines: 156681-154-R-J1-PDC, 283228-195-R-J1-PDC, 287954-098-R-J1-PDC, 292921-168-R-J2-PDC, 349418-098-R-PDC, 425362-245-T-J1-PDC, 556581-035-R-J1-PDC, and BL0293-F563-PDC were received from the NCI Patient-Derived Models Repository (PDMR, https://pdmr.cancer.gov). The established cell lines HS-SY-2 (RRID:CVCL_8719), MPNST, and SYO-1 (RRID:CVCL_7146) were obtained from the Sloan Kettering Institute. The alveolar soft parts sarcoma cell line ASPS-1 (RRID:CVCL_S738) was established at the NCI and grown from internal seed stocks. The following established cell lines were purchased from the American Type Culture Collection (ATCC, Manassas, VA): G-401 (ATCC, cat. CRL-1441, RRID:CVCL_0270), SW982 (ATCC, cat. HTB-93, RRID:CVCL_1734), VA-ES-BJ (ATCC, cat. CRL-2138, RRID:CVCL_1785), NCI-H719 (ATCC, cat. CRL-5837, RRID:CVCL_1582), NCI-H196 (ATCC, cat. CRL-5823, RRID:CVCL_1509), NCI-H841 (ATCC, cat. CRL-5845, RRID:CVCL_1595), NCI-H1618 (ATCC, cat. CRL-5879, RRID:CVCL_1480), NCI-H1876 (ATCC, cat. CRL-5902, RRID:CVCL_1503), DMS 114 (ATCC, cat. CRL-2066; RRID:CVCL_1174), NCI-H211 (ATCC, cat. CRL-5824; RRID:CVCL_1529), and SW 1271 (ATCC, cat. CRL-2177, RRID:CVCL_1716). The small cell lung cancer cell line COR-L88 was purchased from Sigma-Aldrich (cat. 92031917-1VL, RRID:CVCL_1141). The non-small cell lung cancer cell lines NCI-H226 (RRID:CVCL_1544) and NCI-H322M (RRID:CVCL_1557) were established at the NCI and grown from internal seed stocks. Pooled donor human umbilical vein endothelial cells (HUVEC, Lonza, cat. CC-2519) and human mesenchymal stem cells (hMSC, Lonza, cat. PT-2501) were purchased from Lonza (Walkersville, MD).
Cell Culture. All cells were maintained in an incubator at 37 degrees C and 5% CO2 with 95% humidity. […]
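Also: spheroids exposed to compounds for 7 days.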

COc1cc(C)[nH]c(=O)c1CN1CCc2c(Cl)cc(C(OC)C3COC3)c(Cl)c2C1=O (stereo not given) + CC[C@@]1(O)C(=O)OCc2c1cc1n(c2=O)Cc2cc3c(CN(C)C)c(O)ccc3nc2-1
IC50 (second compound 0.003 µM): > 10000 nM | IC50 (second compound 0.00949 µM): > 10000 nM | IC50 (second compound 0.03 µM): 394 nM | IC50 (second compound 0.0949 µM): < 31.6 nM | IC50 (second compound 0.3 µM): < 31.6 nM | viability, T/C (second compound 0.003 µM, first compound 0.0316 µM): 108% | viability, T/C (second compound 0.003 µM, first compound 0.1 µM): 102% | viability, T/C (second compound 0.003 µM, first compound 0.316 µM): 85% | viability, T/C (second compound 0.003 µM, first compound 1 µM): 90.7% | viability, T/C (second compound 0.003 µM, first compound 3.16 µM): 88.7% | viability, T/C (second compound 0.003 µM, first compound 10 µM): 82.8% | viability, T/C (second compound 0.00949 µM, first compound 0.0316 µM): 92.6% | viability, T/C (second compound 0.00949 µM, first compound 0.1 µM): 94.1% | viability, T/C (second compound 0.00949 µM, first compound 0.316 µM): 71.3% | viability, T/C (second compound 0.00949 µM, first compound 1 µM): 71.5% | viability, T/C (second compound 0.00949 µM, first compound 3.16 µM): 81.3% | viability, T/C (second compound 0.00949 µM, first compound 10 µM): 63.3% | viability, T/C (second compound 0.03 µM, first compound 0.0316 µM): 50.6% | viability, T/C (second compound 0.03 µM, first compound 0.1 µM): 59.1% | viability, T/C (second compound 0.03 µM, first compound 0.316 µM): 53.4% | viability, T/C (second compound 0.03 µM, first compound 1 µM): 39.2% | viability, T/C (second compound 0.03 µM, first compound 3.16 µM): 40.2% | viability, T/C (second compound 0.03 µM, first compound 10 µM): 19.8% | viability, T/C (second compound 0.0949 µM, first compound 0.0316 µM): 13.1% | viability, T/C (second compound 0.0949 µM, first compound 0.1 µM): 15.6% | viability, T/C (second compound 0.0949 µM, first compound 0.316 µM): 12.9% | viability, T/C (second compound 0.0949 µM, first compound 1 µM): 9.42% | viability, T/C (second compound 0.0949 µM, first compound 3.16 µM): 10.1% | viability, T/C (second compound 0.0949 µM, first compound 10 µM): 7.35% | viability, T/C (second compound 0.3 µM, first compound 0.0316 µM): 4.43% | viability, T/C (second compound 0.3 µM, first compound 0.1 µM): 4.26% | viability, T/C (second compound 0.3 µM, first compound 0.316 µM): 3.82% | viability, T/C (second compound 0.3 µM, first compound 1 µM): 2.93% | viability, T/C (second compound 0.3 µM, first compound 3.16 µM): 3.15% | viability, T/C (second compound 0.3 µM, first compound 10 µM): 3.34%

O=C(c1cc(Cc2n[nH]c(=O)c3ccccc23)ccc1F)N1CCN(C(=O)C2CC2)CC1 + CC[C@@]1(O)C(=O)OCc2c1cc1n(c2=O)Cc2cc3c(CN(C)C)c(O)ccc3nc2-1
IC50 (second compound 0.003 µM): 5580 nM | IC50 (second compound 0.00949 µM): 3250 nM | IC50 (second compound 0.03 µM): < 94.9 nM | IC50 (second compound 0.0949 µM): < 94.9 nM | IC50 (second compound 0.3 µM): < 94.9 nM | viability, T/C (second compound 0.003 µM, first compound 0.0949 µM): 85.8% | viability, T/C (second compound 0.003 µM, first compound 0.3 µM): 84.9% | viability, T/C (second compound 0.003 µM, first compound 0.949 µM): 83.2% | viability, T/C (second compound 0.003 µM, first compound 3 µM): 71.3% | viability, T/C (second compound 0.003 µM, first compound 9.49 µM): 31.7% | viability, T/C (second compound 0.003 µM, first compound 30 µM): 25.6% | viability, T/C (second compound 0.00949 µM, first compound 0.0949 µM): 58.6% | viability, T/C (second compound 0.00949 µM, first compound 0.3 µM): 55% | viability, T/C (second compound 0.00949 µM, first compound 0.949 µM): 58.4% | viability, T/C (second compound 0.00949 µM, first compound 3 µM): 51.2% | viability, T/C (second compound 0.00949 µM, first compound 9.49 µM): 31.1% | viability, T/C (second compound 0.00949 µM, first compound 30 µM): 23.9% | viability, T/C (second compound 0.03 µM, first compound 0.0949 µM): 22.6% | viability, T/C (second compound 0.03 µM, first compound 0.3 µM): 22.7% | viability, T/C (second compound 0.03 µM, first compound 0.949 µM): 20.4% | viability, T/C (second compound 0.03 µM, first compound 3 µM): 19.9% | viability, T/C (second compound 0.03 µM, first compound 9.49 µM): 18.1% | viability, T/C (second compound 0.03 µM, first compound 30 µM): 18.6% | viability, T/C (second compound 0.0949 µM, first compound 0.0949 µM): 10.1% | viability, T/C (second compound 0.0949 µM, first compound 0.3 µM): 11.3% | viability, T/C (second compound 0.0949 µM, first compound 0.949 µM): 11.2% | viability, T/C (second compound 0.0949 µM, first compound 3 µM): 10% | viability, T/C (second compound 0.0949 µM, first compound 9.49 µM): 8.85% | viability, T/C (second compound 0.0949 µM, first compound 30 µM): 10.6% | viability, T/C (second compound 0.3 µM, first compound 0.0949 µM): 4.24% | viability, T/C (second compound 0.3 µM, first compound 0.3 µM): 4.06% | viability, T/C (second compound 0.3 µM, first compound 0.949 µM): 4.61% | viability, T/C (second compound 0.3 µM, first compound 3 µM): 4.65% | viability, T/C (second compound 0.3 µM, first compound 9.49 µM): 3.41% | viability, T/C (second compound 0.3 µM, first compound 30 µM): 3.89%
